Results published in PubChem BioAssay (NCI).
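Step 1: Grow cells in 96-well plates. Step 2: Expose to compound for 48 hours at 5 concentrations. Step 3: Interpolate endpoints linearly; if unreached, use highest concentration. At the GI50, growth is halved. TGI is the concentration that stops growth completely.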

Legend:
Assay in all cases: NCI-60 cell line screen, 48 h
HT29 colon = system: HT29 colon
RXF 393 renal = system: RXF 393 renal
SN12C renal = system: SN12C renal
SW-620 colon = system: SW-620 colon
OVCAR-8 ovarian = system: OVCAR-8 ovarian
UACC-257 melanoma = system: UACC-257 melanoma
NCI/ADR-RES ovarian = system: NCI/ADR-RES ovarian
A549 NSCLC = system: A549 NSCLC
MCF7 breast = system: MCF7 breast
SF-268 CNS = system: SF-268 CNS
OVCAR-5 ovarian = system: OVCAR-5 ovarian
HCC-2998 colon = system: HCC-2998 colon
SNB-75 CNS = system: SNB-75 CNS
IGROV1 ovarian = system: IGROV1 ovarian
LOX IMVI melanoma = system: LOX IMVI melanoma
T-47D breast = system: T-47D breast
DU-145 prostate = system: DU-145 prostate
K-562 leukemia = system: K-562 leukemia
EKVX NSCLC = system: EKVX NSCLC
HL-60(TB) leukemia = system: HL-60(TB) leukemia
ACHN renal = system: ACHN renal
OVCAR-4 ovarian = system: OVCAR-4 ovarian
A498 renal = system: A498 renal
HOP-62 NSCLC = system: HOP-62 NSCLC
HS 578T breast = system: HS 578T breast
COLO 205 colon = system: COLO 205 colon
UO-31 renal = system: UO-31 renal

With `CS(=O)(=O)c1nccc(-c2c(-c3cccc(OCc4ccc(Cl)c(C(F)(F)F)c4)c3)nc3sccn23)n1` the GI50 (HT29 colon) was 7.99 µM, the TGI (HT29 colon) was 16.3 µM and the GI50 (RXF 393 renal) was 4.31 µM. The TGI (RXF 393 renal) was 10.9 µM, the GI50 (SN12C renal) was 7.07 µM and the TGI (SN12C renal) was 23.1 µM. It also gave a GI50 (SW-620 colon) of 1.79 µM, a TGI (SW-620 colon) of 6.84 µM and a GI50 (OVCAR-8 ovarian) of 7.09 µM. It also gave a TGI (OVCAR-8 ovarian) of 13.8 µM, a GI50 (UACC-257 melanoma) of 4.04 µM and a TGI (UACC-257 melanoma) of 10.8 µM. For the same compound, the GI50 (NCI/ADR-RES ovarian) was 9 µM, the TGI (NCI/ADR-RES ovarian) was 19.1 µM and the GI50 (A549 NSCLC) was 18.1 µM. The TGI (A549 NSCLC) was greater than 50 µM, the GI50 (MCF7 breast) was 0.937 µM and the TGI (MCF7 breast) was 1.98 µM. The GI50 (SF-268 CNS) was 8.49 µM, the TGI (SF-268 CNS) was 17.6 µM and the GI50 (OVCAR-5 ovarian) was 8.78 µM. For the same compound, the TGI (OVCAR-5 ovarian) was 18.8 µM, the GI50 (HCC-2998 colon) was 0.91 µM and the TGI (HCC-2998 colon) was 1.68 µM. The GI50 (SNB-75 CNS) was 6.74 µM, the TGI (SNB-75 CNS) was 17.9 µM and the GI50 (IGROV1 ovarian) was 1.64 µM. The TGI (IGROV1 ovarian) was 5.95 µM, the GI50 (LOX IMVI melanoma) was 0.809 µM and the TGI (LOX IMVI melanoma) was 1.63 µM. It also gave a GI50 (T-47D breast) of 0.881 µM, a TGI (T-47D breast) of 1.82 µM and a GI50 (DU-145 prostate) of 5.01 µM. For the same compound, the TGI (DU-145 prostate) was 10.8 µM, the GI50 (K-562 leukemia) was 2.1 µM and the TGI (K-562 leukemia) was greater than 50 µM. It also gave a GI50 (EKVX NSCLC) of 6.92 µM, a TGI (EKVX NSCLC) of 14.4 µM and a GI50 (HL-60(TB) leukemia) of 0.997 µM. The TGI (HL-60(TB) leukemia) was 2.52 µM, the GI50 (ACHN renal) was 5.6 µM and the TGI (ACHN renal) was 11.6 µM. It also gave a GI50 (OVCAR-4 ovarian) of 6.46 µM, a TGI (OVCAR-4 ovarian) of 13.8 µM and a GI50 (A498 renal) of 7.15 µM. For the same compound, the TGI (A498 renal) was 13.8 µM, the GI50 (HOP-62 NSCLC) was 7.26 µM and the TGI (HOP-62 NSCLC) was 14.1 µM. The GI50 (HS 578T breast) was 1.69 µM, the TGI (HS 578T breast) was 8.73 µM and the GI50 (COLO 205 colon) was 7.02 µM. For the same compound, the TGI (COLO 205 colon) was 13.9 µM, the GI50 (UO-31 renal) was 7.16 µM and the TGI (UO-31 renal) was 13.7 µM.
